What follows are compounds tested against T1, BRC4–RAD51 interaction (Homo sapiens, UniProt Q06609) (assay: Competitive biochemical ELISA assay (biotinylated BRC4 peptide vs RAD51)). Conditions: competition with BRC4 for RAD51; triplicate, ± standard deviation; NA = not active; racemic mixtures unless enantiomer named.
T1 construct: purchased Creative Biomart (RAD51); Life Technologies (BRC4 peptide)
T1 sequence (Q06609 1-339): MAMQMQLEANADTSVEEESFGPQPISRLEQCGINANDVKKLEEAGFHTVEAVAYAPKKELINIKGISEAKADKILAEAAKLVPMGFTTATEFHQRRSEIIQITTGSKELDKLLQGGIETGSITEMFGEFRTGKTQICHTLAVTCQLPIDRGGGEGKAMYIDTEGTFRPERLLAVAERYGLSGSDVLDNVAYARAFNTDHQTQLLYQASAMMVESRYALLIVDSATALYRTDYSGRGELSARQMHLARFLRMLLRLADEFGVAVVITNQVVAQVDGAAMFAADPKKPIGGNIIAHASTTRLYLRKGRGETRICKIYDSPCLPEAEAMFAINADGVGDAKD
Format: binding
Method: To investigate the mechanism of action of the new dihydroquinolone pyrazoline derivatives, different biological assays were performed. As a primary screening, the ability of compounds 5d–57d to inhibit RAD51-BRCA2 interaction was investigated with a competitive biochemical ELISA assay against the parent compound 4d (Table 1). This assay is effective in evaluating the ability of new molecules to compete with BRC4 to bind to RAD51.[30] […] 18d–21d, 23d, 25d, 30d, and 31d were active at micromolar range, all very similar to the initial hit. […] The replacement of the aromatic ring A in combination with the substitution of the pyrazoline nitrogen with either propionyl or acetyl chain yielded compounds 33d–51d. […] As expected for PPI disruptors, the SARs of the new series of dihydroquinolone pyrazoline were rather complex to rationalize, with many cliffs and spikes that were difficult to understand. […] Accordingly, 4d, 12d, 18d, 20d–23d, 30d, 31d, 33d–36d, 39d, 45d, and 49d were submitted to cell-based study (Table 2).
Competitive ELISA screening assay using biotinylated BRC4 peptide to disrupt the BRC4–RAD51 interaction was performed by modifying the method described by Rajendra et al.[33] BRC4-biotinylated peptide (N-term biotin-[…] from Life Technologies) was used to coat 384-well plates (Nunc). After washing with PBS containing 0.05% Tween-20 (PBST) and blocking with the solution BSA 1% /PBST, overnight hybridization with human RAD51 protein (NP_002866 Creative Biomart, NY) was performed. Test compounds were added in dose response from 0.01 to 100 μM in triplicate with constant DMSO 1%. Antibody raised against RAD51 (Millipore) and HRP-secondary antibody staining to develop the 3,3′,5,5′-tetramethylbenzidine signal (Sigma) quenched with 1 M HCl was used as the assay readout. Colorimetric measure was read on a Victor5 (PerkinElmer) plate reader. BRC4 and Rad51 were included in the assay as positive control. Results were analyzed by using GraphPad software.
`CCn1ncc2cc(C3CC(c4c(-c5ccccc5)c5cc(Cl)ccc5[nH]c4=O)=NN3C(=O)CCC(=O)O)ccc21` (stereo not drawn) [Compound 24d, 4-(3-(6-Chloro-2-oxo-4-phenyl-1,2-dihydroquinolin-3-yl)-5-(1-ethyl-1H-indazol-5-yl)-4,5-dihydro-1H-pyrazol-1-yl)-4-oxobutanoic Acid] was tested, and the “EC50 (μM) on ELISA assay” value was “inactive”.
For `COc1ccc(C2CC(c3c(-c4ccccc4)c4cc(Cl)ccc4[nH]c3=O)=NN2C(C)=O)cc1` (stereo not drawn) [Compound 38d, 3-(1-Acetyl-5-(4-methoxyphenyl)-4,5-dihydro-1H-pyrazol-3-yl)-6-chloro-4-phenylquinolin-2(1H)-one], the “EC50 (μM) on ELISA assay” value was “inactive”.
With `CCn1cc2cc(C3CC(c4c(-c5ccccc5)c5cc(Cl)ccc5[nH]c4=O)=NN3C(C)=O)ccc2n1` (stereo not drawn) [Compound 48d, 3-(1-Acetyl-5-(2-ethyl-2H-indazol-5-yl)-4,5-dihydro-1H-pyrazol-3-yl)-6-chloro-4-phenylquinolin-2(1H)-one] the “EC50 (μM) on ELISA assay” value was “inactive”.
With `CCCn1cc2cc(C3CC(c4c(-c5ccccc5)c5cc(Cl)ccc5[nH]c4=O)=NN3C(C)=O)ccc2n1` (stereo not drawn) [Compound 50d, 3-(1-Acetyl-5-(2-propyl-2H-indazol-5-yl)-4,5-dihydro-1H-pyrazol-3-yl)-6-chloro-4-phenylquinolin-2(1H)-one] the “EC50 (μM) on ELISA assay” value was “inactive”.

Same assay, conditions: competition with BRC4 for RAD51; triplicate, ± standard deviation; NA = not active; racemic mixtures unless enantiomer named; read-out: EC50 (μM) on ELISA assay
With `CC(=O)N1N=C(c2c(-c3ccccc3)c3cc(Cl)ccc3[nH]c2=O)CC1c1ccc(F)cc1` (stereo not drawn) [Compound 5d, 3-(1-Acetyl-5-(4-fluorophenyl)-4,5-dihydro-1H-pyrazol-3-yl)-6-chloro-4-phenylquinolin-2(1H)-one] the EC50 was 50 ± 10 µM.
In the case of `CCC(=O)N1N=C(c2c(-c3ccccc3)c3cc(Cl)ccc3[nH]c2=O)CC1c1ccc(F)cc1` (stereo not drawn) [Compound 6d, 6-Chloro-3-(5-(4-fluorophenyl)-1-propionyl-4,5-dihydro-1H-pyrazol-3-yl)-4-phenylquinolin-2(1H)-one], the EC50 is reported as 34 ± 3 µM.
Compound `O=C(O)CCC(=O)N1N=C(c2c(-c3ccccc3)c3cc(Cl)ccc3[nH]c2=O)CC1c1ccc(Cl)cc1` (stereo not drawn) [Compound 11d, 4-(3-(6-Chloro-2-oxo-4-phenyl-1,2-dihydroquinolin-3-yl)-5-(4-chlorophenyl)-4,5-dihydro-1H-pyrazol-1-yl)-4-oxobutanoic Acid] has an EC50 of 59 ± 8 µM.
Compound `O=C(O)CCC(=O)N1N=C(c2c(-c3ccccc3)c3cc(Cl)ccc3[nH]c2=O)CC1c1ccc(C(F)(F)F)cc1` (stereo not drawn) [Compound 16d, 4-(3-(6-Chloro-2-oxo-4-phenyl-1,2-dihydroquinolin-3-yl)-5-(4-(trifluoromethyl)phenyl)-4,5-dihydro-1H-pyrazol-1-yl)-4-oxobutanoic Acid] has an EC50 of 29 ± 2 µM.
`O=C(O)CCC(=O)N1N=C(c2c(-c3ccccc3)c3cc(Cl)ccc3[nH]c2=O)CC1c1ccc(-c2ccc(Cl)cc2)cc1` (stereo not drawn) [Compound 19d, 4-(3-(6-Chloro-2-oxo-4-phenyl-1,2-dihydroquinolin-3-yl)-5-(4′-chloro-[1,1′-biphenyl]-4-yl)-4,5-dihydro-1H-pyrazol-1-yl)-4-oxobutanoic Acid] gave an EC50 of 25 ± 5 µM.
`CCn1cc2cc(C3CC(c4c(-c5ccccc5)c5cc(Cl)ccc5[nH]c4=O)=NN3C(=O)CCC(=O)O)ccc2n1` (stereo not drawn) [Compound 25d, 4-(3-(6-Chloro-2-oxo-4-phenyl-1,2-dihydroquinolin-3-yl)-5-(2-ethyl-2H-indazol-5-yl)-4,5-dihydro-1H-pyrazol-1-yl)-4-oxobutanoic Acid] gave an EC50 of 28 ± 4 µM.
`CCCn1cc(-c2ccc(C3CC(c4c(-c5ccccc5)c5cc(Cl)ccc5[nH]c4=O)=NN3C(=O)CCC(=O)O)cc2)cn1` (stereo not drawn) [Compound 32d, 4-(3-(6-Chloro-2-oxo-4-phenyl-1,2-dihydroquinolin-3-yl)-5-(4-(1-propyl-1H-pyrazol-4-yl)phenyl)-4,5-dihydro-1H-pyrazol-1-yl)-4-oxobutanoic Acid] was tested, and the EC50 was 65 ± 5 µM.
`CC(=O)N1N=C(c2c(-c3ccccc3)c3cc(Cl)ccc3[nH]c2=O)CC1c1ccc(Br)cc1` (stereo not drawn) [Compound 37d, 3-(1-Acetyl-5-(4-bromophenyl)-4,5-dihydro-1H-pyrazol-3-yl)-6-chloro-4-phenylquinolin-2(1H)-one] showed an EC50 of 38 ± 7 µM.
For `CC(=O)N1N=C(c2c(-c3ccccc3)c3cc(Cl)ccc3[nH]c2=O)CC1c1ccc(-c2ccc(Cl)cc2)cc1` (stereo not drawn) [Compound 42d, 3-(1-Acetyl-5-(4′-chloro-[1,1′-biphenyl]-4-yl)-4,5-dihydro-1H-pyrazol-3-yl)-6-chloro-4-phenylquinolin-2(1H)-one], the EC50 was 45 ± 8 µM.
Compound `CC(=O)N1N=C(c2c(-c3ccccc3)c3cc(Cl)ccc3[nH]c2=O)CC1c1ccc(-c2ccc(Br)cc2)cc1` (stereo not drawn) [Compound 43d, 3-(1-Acetyl-5-(4′-bromo-[1,1′-biphenyl]-4-yl)-4,5-dihydro-1H-pyrazol-3-yl)-6-chloro-4-phenylquinolin-2(1H)-one] has an EC50 of 70 ± 15 µM.
`COc1ccc(-c2ccc(C3CC(c4c(-c5ccccc5)c5cc(Cl)ccc5[nH]c4=O)=NN3C(C)=O)cc2)cc1` (stereo not drawn) [Compound 44d, 3-(1-Acetyl-5-(4′-methoxy-[1,1′-biphenyl]-4-yl)-4,5-dihydro-1H-pyrazol-3-yl)-6-chloro-4-phenylquinolin-2(1H)-one] showed an EC50 of 70 ± 6 µM.
Work on `CCn1ccc2cc(C3CC(c4c(-c5ccccc5)c5cc(Cl)ccc5[nH]c4=O)=NN3C(C)=O)ccc21` (stereo not drawn) [Compound 46d, 3-(1-Acetyl-5-(1-ethyl-1H-indol-5-yl)-4,5-dihydro-1H-pyrazol-3-yl)-6-chloro-4-phenylquinolin-2(1H)-one] yielded an EC50 of 50 ± 15 µM.
`CCn1ncc2cc(C3CC(c4c(-c5ccccc5)c5cc(Cl)ccc5[nH]c4=O)=NN3C(C)=O)ccc21` (stereo not drawn) [Compound 47d, 3-(1-Acetyl-5-(1-ethyl-1H-indazol-5-yl)-4,5-dihydro-1H-pyrazol-3-yl)-6-chloro-4-phenylquinolin-2(1H)-one] gave an EC50 of 40 ± 3 µM.
Compound `CCCn1cc(-c2ccc(C3CC(c4c(-c5ccccc5)c5cc(Cl)ccc5[nH]c4=O)=NN3C(C)=O)cc2)cn1` (stereo not drawn) [Compound 51d, 3-(1-Acetyl-5-(4-(1-propyl-1H-pyrazol-4-yl)phenyl)-4,5-dihydro-1H-pyrazol-3-yl)-6-chloro-4-phenylquinolin-2(1H)-one] has an EC50 of 46 ± 9 µM.

From PMC7997579, “Synthetic Lethality in Pancreatic Cancer: Discovery of a New RAD51-BRCA2 Small Molecule Disruptor That Inhibits Homologous Recombination and Synergizes with Olaparib” (Journal of Medicinal Chemistry, 2020)
